Source: patent publication US20150018384A1, “TREATMENT FOR HIGH CHOLESTEROL” (FibroGen, Inc., priority 2012, published 2015)
Entries after “also recorded” stand apart in the source; their conditions may differ.

Key:
[1] = system: genes involved in cholesterol biosynthesis in DIO mice liver; assay: Microarray expression of cholesterol biosynthesis genes in liver of DIO mice; type: in vivo, mouse; details: 60 mg/kg three times a week, 4 weeks of dosing, relative to vehicle treated mice
Procedure: (§1) A number of PHI compounds were evaluated for their effect on the expression of cholesterol biosynthesis genes in mouse liver. […] Liver tissue was harvested and stored in RNALater (Life Technologies). Total RNA was isolated with Trizol (Life Technologies) and purified with RNEasy96 (Qiagen) according to the manufacturers' protocols. RNA concentration was measured by NanoDrop (Thermo), and quality was assessed by Bioanalyzer (Agilent).
(§2) Biotinylated microarray probe was prepared using the 3′IVT Express kit (Affymetrix) and hybridized to mouse 430A 2.0 arrays as recommended in the manufacturer's protocol. Arrays were stained, washed, and scanned using Affymetrix equipment and software. Three arrays were run for each treatment and time point, each representing the liver sample from one individual animal.
(§3) For microarray analysis, RNA from animals in each treatment group was pooled in pairs (n=3 pairs for 4 h vehicle, n=2 pairs for all other treatment groups, for a total of 13 arrays per compound study). This approach was used to improve the signal-to-noise ratio on microarrays. Biotinylated probe was prepared using the One-Cycle cDNA synthesis kit (Affymetrix) and hybridized to mouse 430A 2.0 arrays as recommended in the manufacturer's protocol. Arrays were stained, washed, and scanned using Affymetrix equipment and software.
(§4) Array quality was assessed with GeneChip Operating System and/or Command Console software (Affymetrix). CEL files were uploaded to GeneSpring 7.3.1 (Agilent) using GC-RMA baseline correction. Principal Components Analysis was used to identify and reject outlier arrays. Data are reported as fold-change compared to timepoint-matched vehicle controls from the same study. Values less than 1.0 indicate a reduction of RNA in the treated animal liver tissue.
Liver tissue was collected as described in Example 6 from DIO mice at the end of the study (4 weeks of dosing) described in Example 12. RNA isolation and microarray analysis were carried out as described in Example 6. The expression of 16 genes involved in cholesterol biosynthesis in mice treated with Compound B, Compound E, or Compound D, relative to that in the vehicle treated mice, is shown in Table 7.

[2] = system: ApoE deficient mice; assay: High cholesterol mouse model, ApoE deficient mice, 2 weeks; type: in vivo; details: Compound 60 mg/kg three times a week for two weeks, n=10/group, FIG. 22
Text: (§5) Ten-week-old male apoE knockout mice (Jackson Laboratories, Bar Harbor, Me.) were fed a normal chow diet (0.02% cholesterol, 13.5% fat by weight; LabDiet). […] After 2 weeks of acclimatization, whole blood was collected for baseline measurement before administration of test reagents. […] The animals were sacrificed at end of study.
ApoE deficient mice as described in Example 10 were used to test the effect of various compounds on cholesterol levels. […] A statin compound (rosuvastatin) was also tested. Blood samples were collected at the end of the study and total cholesterol blood levels were tested. A group of 10 mice was sacrificed at the beginning of the study for a baseline total cholesterol measurement. […] Typically statins show mixed results in this model and are not very effective to reduce cholesterol in mice (Bea et al. 2003 Atherosclerosis 167:187-194).

[3] = system: cynomolgus monkeys; assay: Cholesterol levels after repeated oral administration in monkey toxicity studies; type: in vivo, cynomolgus monkey; details: 28-Day study, daily oral dosing 1, 10 and 30 mg/kg, day 28
Procedure: During these studies monkeys were fasted prior to each blood collection. Plasma samples were then evaluated at pre-dose and at different time-points for levels of total cholesterol.

[4] = system: ApoE deficient mice; assay: Cholesterol reduction and erythrogenesis in ApoE deficient mice, 4 weeks; type: in vivo, mouse; details: orally 2, 20, 60 or 100 mg/kg three times a week for 4 weeks, n=8/group
Procedure: as §5
Total cholesterol and hemoglobin were measured weekly.

[5] = system: Cholesterol Biosynthesis Genes in the Mouse Liver; assay: Microarray expression of cholesterol biosynthesis genes in mouse liver; type: in vivo; details: 10 mg/kg oral
Procedure: as §1, §2
Animals were sacrificed 4 h or 8 h later. Each compound was tested in a separate animal study with separate controls. Liver tissue was harvested and stored in RNALater (Life Technologies). Total RNA was isolated with Trizol (Life Technologies) and purified with RNEasy96 (Qiagen) according to the manufacturers' protocols. RNA concentration was measured by NanoDrop (Thermo), and quality was assessed by Bioanalyzer (Agilent).
as §3, §4

[6] = system: subjects with end stage renal disease (ESRD); assay: ESRD subjects switched from epoetin alfa to Compound A or continued on epoetin alfa; type: in vivo, human; details: six weeks
Procedure: Mean total cholesterol change for the Compound A-treated subjects (all cohorts) was a decrease of 15 mg/dL compared to an increase of 18 mg/dL for the epoetin alfa treated subjects.

[7] = system: subjects with end stage renal disease (ESRD); assay: as above; type: in vivo, human
[8] = system: subjects with end-stage renal disease (ESRD) receiving maintenance hemodialysis; assay: Study 2: phase 2 study of compound A vs EPO in ESRD subjects on maintenance hemodialysis; type: in vivo, human; details: treated for 19 weeks, FIG. 2
Procedure: Total cholesterol and lipid panels were measured by standard procedures.
Total cholesterol was measured from all subjects in Study 1 or Study 2 as part of the chemistry panel at prespecified time points.
Frozen serum samples, collected from subjects in Study 1 or Study 2, were selected for the lipid panel analysis based on the following criteria: 1) with matched baseline (D1W1) and; 2) at least one other time point. The complete lipid panel includes: total cholesterol (TC), HDL, LDL-measured, Triglycerides and VLDL (Calculated). Ratio of HDL/LDL or LDL/HDL were analyzed.
A total of n=20 subjects were selected and assayed for the complete lipid panel as described above. Subjects on this study protocol were not required to fast nor have any diet restrictions.

[9] = baseline, Compound A 3 cohorts n=74, Epoetin alfa n=22

O=C(O)CNC(=O)c1nc(Cl)c2ccccc2c1O [Compound B, [(1-Chloro-4-hydroxy-isoquinoline-3-carbonyl)-amino]-acetic acid]
3-hydroxy-3-methylglutaryl-Coenzyme A reductase (Hmgcr) expression [1]: 0.20
3-hydroxy-3-methylglutaryl-Coenzyme A synthase 1 (Hmgcs1) expression [1]: 0.15
7-dehydrocholesterol reductase (Dhcr7) expression [1]: 0.43
NAD(P) dependent steroid dehydrogenase-like (Nsdhl) expression [1]: 0.34
acetyl-Coenzyme A acetyltransferase 2 (Acat2) expression [1]: 0.43
cytochrome P450, family 51 (Cyp51) expression [1]: 0.18
farnesyl diphosphate farnesyl transferase 1 (Fdft1) expression [1]: 0.30
farnesyl diphosphate synthetase (Fdps) expression [1]: 0.26
isopentenyl-diphosphate delta isomerase (Idi1) expression [1]: 0.23
lanosterol synthase (Lss) expression [1]: 0.38
mevalonate (diphospho) decarboxylase (Mvd) expression [1]: 0.20
mevalonate kinase (Mvk) expression [1]: 0.54
phosphomevalonate kinase (Pmvk) expression [1]: 0.48
squalene epoxidase (Sqle) expression [1]: 0.21
sterol-C4-methyl oxidase-like (Sc4mol) expression [1]: 0.13
sterol-C5-desaturase (fungal ERG3, delta-5-desaturase) homolog (S. cerevisae) (Sc5d) expression [1]: 0.30
total cholesterol levels at the end of the study compared to baseline [2]: trend towards lower total cholesterol

COc1ccc(Oc2ccc3c(O)c(C(=O)NCC(=O)O)ncc3c2)cc1 [Compound D, {[4-Hydroxy-7-(4-methoxy-phenoxy)-isoquinoline-3-carbonyl]-amino}-acetic acid]
3-hydroxy-3-methylglutaryl-Coenzyme A reductase (Hmgcr) expression [1]: 0.47
3-hydroxy-3-methylglutaryl-Coenzyme A synthase 1 (Hmgcs1) expression [1]: 0.42
7-dehydrocholesterol reductase (Dhcr7) expression [1]: 0.76
NAD(P) dependent steroid dehydrogenase-like (Nsdhl) expression [1]: 1.02
acetyl-Coenzyme A acetyltransferase 2 (Acat2) expression [1]: 0.72
cytochrome P450, family 51 (Cyp51) expression [1]: 0.55
farnesyl diphosphate farnesyl transferase 1 (Fdft1) expression [1]: 0.44
farnesyl diphosphate synthetase (Fdps) expression [1]: 0.92
isopentenyl-diphosphate delta isomerase (Idi1) expression [1]: 0.67
lanosterol synthase (Lss) expression [1]: 0.70
mevalonate (diphospho) decarboxylase (Mvd) expression [1]: 0.43
mevalonate kinase (Mvk) expression [1]: 0.77
phosphomevalonate kinase (Pmvk) expression [1]: 1.14
squalene epoxidase (Sqle) expression [1]: 0.89
sterol-C4-methyl oxidase-like (Sc4mol) expression [1]: 0.38
sterol-C5-desaturase (fungal ERG3, delta-5-desaturase) homolog (S. cerevisae) (Sc5d) expression [1]: 0.42
total cholesterol levels [3]: dose-dependent decrease in cholesterol levels
total cholesterol levels ([3]; listed as compound D): dose dependent decrease in total cholesterol
hemoglobin compared to vehicle-treated [4]: did not significantly increase hemoglobin at any of the tested doses; also recorded: did not show a significant increase in hemoglobin at any of the doses tested
total cholesterol (% change from baseline) compared to vehicle-treated [4]: lower total cholesterol levels; also recorded: significant percent change in total cholesterol from baseline for the 20 mg/kg, 60 mg/kg, and 100 mg/kg doses
total cholesterol levels at the end of the study compared to baseline [2]: significantly decreased cholesterol levels

N#Cc1nc(C(=O)NCC(=O)O)c(O)c2c(Oc3ccccc3)cccc12 [Compound E, [(1-Cyano-4-hydroxy-5-phenoxy-isoquinoline-3-carbonyl)-amino]-acetic acid]
3-hydroxy-3-methylglutaryl-Coenzyme A reductase (Hmgcr) expression [1]: 0.36
3-hydroxy-3-methylglutaryl-Coenzyme A synthase 1 (Hmgcs1) expression [1]: 0.33
7-dehydrocholesterol reductase (Dhcr7) expression [1]: 0.52
NAD(P) dependent steroid dehydrogenase-like (Nsdhl) expression [1]: 0.77
acetyl-Coenzyme A acetyltransferase 2 (Acat2) expression [1]: 0.69
cytochrome P450, family 51 (Cyp51) expression [1]: 0.26
farnesyl diphosphate farnesyl transferase 1 (Fdft1) expression [1]: 0.40
farnesyl diphosphate synthetase (Fdps) expression [1]: 0.57
isopentenyl-diphosphate delta isomerase (Idi1) expression [1]: 0.42
lanosterol synthase (Lss) expression [1]: 0.45
mevalonate (diphospho) decarboxylase (Mvd) expression [1]: 0.34
mevalonate kinase (Mvk) expression [1]: 0.58
phosphomevalonate kinase (Pmvk) expression [1]: 0.74
squalene epoxidase (Sqle) expression [1]: 0.52
sterol-C4-methyl oxidase-like (Sc4mol) expression [1]: 0.27
sterol-C5-desaturase (fungal ERG3, delta-5-desaturase) homolog (S. cerevisae) (Sc5d) expression [1]: 0.34

COc1ccc(Cn2cc(Br)c3c(O)c(C(=O)NCC(=O)O)nc(C#N)c32)cc1 [Compound K, {[3-Bromo-7-cyano-4-hydroxy-1-(4-methoxy-benzyl)-1H-pyrrolo[2,3-c]pyridine-5-carbonyl]-amino}-acetic acid]
3-hydroxy-3-methylglutaryl-Coenzyme A reductase (Hmgcr) RNA expression ([5]; 4 h): 0.40 fold-change
3-hydroxy-3-methylglutaryl-Coenzyme A synthase 1 (Hmgcs1) RNA expression ([5]; 4 h): 0.74 fold-change
7-dehydrocholesterol reductase (Dhcr7) RNA expression ([5]; 4 h): 1.13 fold-change
NAD(P) dependent steroid dehydrogenase-like (Nsdhl) RNA expression ([5]; 4 h): 1.05 fold-change
acetyl-Coenzyme A acetyltransferase 2 (Acat2) RNA expression ([5]; 4 h): 0.94 fold-change
cytochrome P450, family 51 (Cyp51) RNA expression ([5]; 4 h): 0.81 fold-change
farnesyl diphosphate farnesyl transferase 1 (Fdft1) RNA expression ([5]; 4 h): 0.78 fold-change
farnesyl diphosphate synthetase (Fdps) RNA expression ([5]; 4 h): 1.01 fold-change
isopentenyl-diphosphate delta isomerase (Idi1) RNA expression ([5]; 4 h): 0.88 fold-change
lanosterol synthase (Lss) RNA expression ([5]; 4 h): 0.88 fold-change
mevalonate (diphospho) decarboxylase (Mvd) RNA expression ([5]; 4 h): 0.68 fold-change
mevalonate kinase (Mvk) RNA expression ([5]; 4 h): 0.92 fold-change
phosphomevalonate kinase (Pmvk) RNA expression ([5]; 4 h): 0.88 fold-change
squalene epoxidase (Sqle) RNA expression ([5]; 4 h): 1.46 fold-change
sterol-C4-methyl oxidase-like (Sc4mol) RNA expression ([5]; 4 h): 0.65 fold-change
sterol-C5-desaturase (fungal ERG3, delta-5-desaturase) homolog (S. cerevisae) (Sc5d) RNA expression ([5]; 4 h): 0.92 fold-change
3-hydroxy-3-methylglutaryl-Coenzyme A reductase (Hmgcr) RNA expression ([5]; 8 h): 0.11 fold-change
3-hydroxy-3-methylglutaryl-Coenzyme A synthase 1 (Hmgcs1) RNA expression ([5]; 8 h): 0.30 fold-change
7-dehydrocholesterol reductase (Dhcr7) RNA expression ([5]; 8 h): 0.61 fold-change
NAD(P) dependent steroid dehydrogenase-like (Nsdhl) RNA expression ([5]; 8 h): 0.56 fold-change
acetyl-Coenzyme A acetyltransferase 2 (Acat2) RNA expression ([5]; 8 h): 0.63 fold-change
cytochrome P450, family 51 (Cyp51) RNA expression ([5]; 8 h): 0.32 fold-change
farnesyl diphosphate farnesyl transferase 1 (Fdft1) RNA expression ([5]; 8 h): 0.39 fold-change
farnesyl diphosphate synthetase (Fdps) RNA expression ([5]; 8 h): 0.37 fold-change
isopentenyl-diphosphate delta isomerase (Idi1) RNA expression ([5]; 8 h): 0.34 fold-change
lanosterol synthase (Lss) RNA expression ([5]; 8 h): 0.38 fold-change
mevalonate (diphospho) decarboxylase (Mvd) RNA expression ([5]; 8 h): 0.20 fold-change
mevalonate kinase (Mvk) RNA expression ([5]; 8 h): 0.49 fold-change
phosphomevalonate kinase (Pmvk) RNA expression ([5]; 8 h): 0.96 fold-change
squalene epoxidase (Sqle) RNA expression ([5]; 8 h): 0.39 fold-change
sterol-C4-methyl oxidase-like (Sc4mol) RNA expression ([5]; 8 h): 0.21 fold-change
sterol-C5-desaturase (fungal ERG3, delta-5-desaturase) homolog (S. cerevisae) (Sc5d) RNA expression ([5]; 8 h): 0.24 fold-change

Epoetin alfa [reference compound]
Total Cholesterol change ([6]; Mean (±SD), Compound A orally three times a week (n=74) or continued epoetin alfa (n=22)): +18 (22) mg/dL
Mean total cholesterol change, increase [6]: 18 mg/dL
LDL cholesterol change ([7]; Mean (±SD), six weeks, Compound A orally three times a week (n=74) or continued epoetin alfa (n=22)): +5 (14) mg/dL
Mean BL LDL Cholesterol [7, 9]: 90.75 mg/dL
Mean BL Total Cholesterol [7, 9]: 158.41 mg/dL
mean total cholesterol over the course of treatment ([7]; both groups stratified by BL total cholesterol ≦200 or >200 mg/dL, FIG. 16): increase
HDL-C ([7]; six weeks): did not change significantly
Mean change in LDL-C, increase ([7]; six weeks): 5 mg/dL
mean LDL-C over the course of treatment ([7]; subjects with the higher BL total cholesterol (n=2), FIG. 17): slight decrease
mean LDL-C over the course of treatment ([7]; subjects with the lower BL total cholesterol (n=20)): increase
change in total cholesterol from baseline over time [8]: No reduction of total cholesterol
